Laboratory results: patent US12428408B2, “Fused heterocyclic mescaline derivatives” (Enveric Biosciences Canada Inc., priority 2022, dated 2025)
Like-named read-outs stand apart in the source and are kept apart here.

Legend:
5-HT1B (h) = molecular target: T1, 5-HT1B (h) (Homo sapiens, UniProt P28222); assay: Competition assay to measure binding affinity at 5-HT1B receptor; conditions: test ligand 10 μM; [3H]GR125743 1 nM
T1 construct: host or cells: Chem-1 (RBL) cells

5-HT2C (h) = molecular target: T2, 5-HT2C (h) (Homo sapiens, UniProt P28335); assay: Competition assay to measure binding affinity at 5-HT2C receptor; conditions: test ligand 10 μM; [125I](±)DOI 0.1 nM
T2 construct: host or cells: HEK-293 cells
T2 sequence (P28335 33-458): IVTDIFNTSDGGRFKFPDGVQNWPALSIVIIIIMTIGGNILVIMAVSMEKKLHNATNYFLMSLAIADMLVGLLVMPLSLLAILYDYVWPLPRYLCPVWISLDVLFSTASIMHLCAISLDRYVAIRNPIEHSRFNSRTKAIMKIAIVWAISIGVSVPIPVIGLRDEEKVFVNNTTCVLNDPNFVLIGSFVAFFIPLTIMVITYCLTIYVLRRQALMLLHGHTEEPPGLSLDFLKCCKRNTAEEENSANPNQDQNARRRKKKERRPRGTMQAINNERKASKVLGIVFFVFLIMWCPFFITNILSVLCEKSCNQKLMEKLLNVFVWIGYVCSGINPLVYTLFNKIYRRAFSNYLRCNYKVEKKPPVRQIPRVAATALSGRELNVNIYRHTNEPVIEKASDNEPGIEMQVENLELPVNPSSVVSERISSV

5-HT2A receptor = 5-HT2A receptor (Homo sapiens, UniProt P28223); assay: 5-HT2A receptor radioligand competition assay (SPA)
Sequence of 5-HT2A receptor (P28223 whole entry): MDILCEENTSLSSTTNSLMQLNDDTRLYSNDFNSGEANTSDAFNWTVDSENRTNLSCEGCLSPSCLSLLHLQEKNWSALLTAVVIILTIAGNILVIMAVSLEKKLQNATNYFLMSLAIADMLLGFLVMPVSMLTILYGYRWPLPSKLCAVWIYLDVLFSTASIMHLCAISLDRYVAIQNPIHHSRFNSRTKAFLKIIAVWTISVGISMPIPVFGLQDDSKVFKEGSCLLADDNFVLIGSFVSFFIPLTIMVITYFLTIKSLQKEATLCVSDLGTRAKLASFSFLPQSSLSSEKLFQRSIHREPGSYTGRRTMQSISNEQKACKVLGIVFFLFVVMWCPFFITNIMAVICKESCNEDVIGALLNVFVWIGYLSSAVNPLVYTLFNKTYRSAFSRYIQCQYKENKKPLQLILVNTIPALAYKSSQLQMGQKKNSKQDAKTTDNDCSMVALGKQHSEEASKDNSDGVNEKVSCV

[1] = molecular target: T3, human serotonin transporter (SERT) (Homo sapiens, UniProt P31645); assay: biochemical; assay type: binding
T3 construct: purchased PerkinElmer RBHSTM400UA
T3 sequence (P31645 whole entry): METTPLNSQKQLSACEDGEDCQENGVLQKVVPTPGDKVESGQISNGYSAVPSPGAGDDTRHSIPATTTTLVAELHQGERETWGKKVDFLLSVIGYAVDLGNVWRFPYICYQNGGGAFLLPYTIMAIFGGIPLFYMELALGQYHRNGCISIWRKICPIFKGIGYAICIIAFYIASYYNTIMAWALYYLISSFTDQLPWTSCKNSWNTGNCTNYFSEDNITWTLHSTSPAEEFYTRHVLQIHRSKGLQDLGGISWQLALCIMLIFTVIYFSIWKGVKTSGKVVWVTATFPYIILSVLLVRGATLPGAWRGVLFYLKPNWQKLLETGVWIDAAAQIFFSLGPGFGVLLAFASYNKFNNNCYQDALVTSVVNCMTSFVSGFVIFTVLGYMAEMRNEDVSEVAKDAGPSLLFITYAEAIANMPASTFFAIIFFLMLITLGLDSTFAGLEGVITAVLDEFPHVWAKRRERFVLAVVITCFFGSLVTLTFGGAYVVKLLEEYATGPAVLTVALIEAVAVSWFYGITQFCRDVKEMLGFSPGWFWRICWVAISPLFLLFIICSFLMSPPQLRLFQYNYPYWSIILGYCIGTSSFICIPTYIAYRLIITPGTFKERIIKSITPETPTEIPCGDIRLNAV

5-HT2B (h) = molecular target: T4, 5-HT2B (h) (Homo sapiens, UniProt P41595); assay: Competition assay to measure binding affinity at 5-HT2B receptor; conditions: test ligand 10 μM; [3H]mesulergine 2 nM
T4 construct: host or cells: CHO cells
T4 sequence (P41595 whole entry): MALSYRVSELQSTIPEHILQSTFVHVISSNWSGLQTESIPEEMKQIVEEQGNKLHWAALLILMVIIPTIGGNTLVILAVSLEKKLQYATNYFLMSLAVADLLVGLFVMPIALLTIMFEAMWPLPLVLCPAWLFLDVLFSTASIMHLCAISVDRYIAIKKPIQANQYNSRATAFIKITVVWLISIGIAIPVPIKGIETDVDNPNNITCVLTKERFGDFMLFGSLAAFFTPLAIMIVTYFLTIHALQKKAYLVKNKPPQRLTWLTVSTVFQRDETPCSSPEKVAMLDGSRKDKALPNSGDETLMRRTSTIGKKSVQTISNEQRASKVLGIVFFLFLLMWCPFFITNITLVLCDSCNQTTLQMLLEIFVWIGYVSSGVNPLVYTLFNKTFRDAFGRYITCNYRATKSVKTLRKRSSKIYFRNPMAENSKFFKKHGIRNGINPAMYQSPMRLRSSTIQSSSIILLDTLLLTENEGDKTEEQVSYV

5-HT1D (r) = molecular target: T5, 5-HT1D (r) (Rattus norvegicus, UniProt P28565); assay: Competition assay to measure binding affinity at 5-HT1D receptor; conditions: test ligand 10 μM; [3H]serotonin 1 nM
T5 construct: host or cells: CHO cells
T5 sequence (P28565 whole entry): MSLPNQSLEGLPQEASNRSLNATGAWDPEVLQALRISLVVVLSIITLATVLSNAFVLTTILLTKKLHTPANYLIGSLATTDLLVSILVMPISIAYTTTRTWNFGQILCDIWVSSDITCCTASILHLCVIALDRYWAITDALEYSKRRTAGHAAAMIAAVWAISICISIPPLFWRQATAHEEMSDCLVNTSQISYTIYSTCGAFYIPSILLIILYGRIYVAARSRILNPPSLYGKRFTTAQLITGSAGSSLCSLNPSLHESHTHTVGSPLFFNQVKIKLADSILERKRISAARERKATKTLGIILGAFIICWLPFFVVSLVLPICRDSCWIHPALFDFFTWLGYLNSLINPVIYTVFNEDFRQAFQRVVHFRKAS

MT1 (ML1A) (h) = molecular target: T6, MT1 (ML1A) (h) (Homo sapiens, UniProt P48039); assay: Competition assay to measure binding affinity at MT1 receptor; conditions: test ligand 10 μM; [125I]2-iodomelatonin 0.01 nM
T6 construct: host or cells: CHO cells
T6 sequence (P48039 whole entry): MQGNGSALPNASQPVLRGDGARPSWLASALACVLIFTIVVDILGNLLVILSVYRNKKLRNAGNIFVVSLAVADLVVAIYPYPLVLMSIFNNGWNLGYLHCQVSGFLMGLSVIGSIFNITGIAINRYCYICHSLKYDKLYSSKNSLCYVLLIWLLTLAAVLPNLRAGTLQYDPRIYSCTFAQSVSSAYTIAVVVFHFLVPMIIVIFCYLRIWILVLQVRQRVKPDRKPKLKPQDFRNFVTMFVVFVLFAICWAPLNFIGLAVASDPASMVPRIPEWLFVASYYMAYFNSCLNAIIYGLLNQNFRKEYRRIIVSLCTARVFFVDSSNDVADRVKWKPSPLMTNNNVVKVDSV

alpha2A (h) = molecular target: T7, alpha2A (h) (Homo sapiens, UniProt P08913); assay: Competition assay to measure binding affinity at alpha2A receptor; conditions: test ligand 10 μM, [3H]RX 821002 1 nM; for inhibition at 10 µM: read-out: α-2A, percent of control-specific binding
T7 construct: host or cells: CHO cells
T7 sequence (P08913 1-465): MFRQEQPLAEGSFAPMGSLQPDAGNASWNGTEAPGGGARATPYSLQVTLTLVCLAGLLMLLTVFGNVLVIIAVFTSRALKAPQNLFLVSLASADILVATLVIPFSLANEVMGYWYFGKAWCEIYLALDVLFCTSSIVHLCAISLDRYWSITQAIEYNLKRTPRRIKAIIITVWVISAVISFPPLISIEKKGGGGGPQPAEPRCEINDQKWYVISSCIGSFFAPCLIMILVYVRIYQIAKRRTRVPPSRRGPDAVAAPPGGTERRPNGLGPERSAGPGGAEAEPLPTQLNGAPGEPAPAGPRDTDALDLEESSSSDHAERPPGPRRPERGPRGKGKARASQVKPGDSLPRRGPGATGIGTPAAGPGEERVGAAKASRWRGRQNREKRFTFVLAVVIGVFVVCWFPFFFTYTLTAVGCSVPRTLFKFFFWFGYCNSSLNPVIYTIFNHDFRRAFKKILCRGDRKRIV

5-HT1A receptor [2] = molecular target: T8, 5-HT1A receptor (Homo sapiens, UniProt P08908); assay: Functional 5-HT1A receptor cAMP assay in CHO-K1/5-HT1A/Gα15 cells; assay type: cell-based; conditions: for 5-HT1A receptor engagement (change in cAMP levels), in words: +5-HT1A cells, 4 μM forskolin, FIGS. 37B-37H
T8 construct: purchased Perkin Elmer 6110501400UA
T8 sequence (P08908 1-422): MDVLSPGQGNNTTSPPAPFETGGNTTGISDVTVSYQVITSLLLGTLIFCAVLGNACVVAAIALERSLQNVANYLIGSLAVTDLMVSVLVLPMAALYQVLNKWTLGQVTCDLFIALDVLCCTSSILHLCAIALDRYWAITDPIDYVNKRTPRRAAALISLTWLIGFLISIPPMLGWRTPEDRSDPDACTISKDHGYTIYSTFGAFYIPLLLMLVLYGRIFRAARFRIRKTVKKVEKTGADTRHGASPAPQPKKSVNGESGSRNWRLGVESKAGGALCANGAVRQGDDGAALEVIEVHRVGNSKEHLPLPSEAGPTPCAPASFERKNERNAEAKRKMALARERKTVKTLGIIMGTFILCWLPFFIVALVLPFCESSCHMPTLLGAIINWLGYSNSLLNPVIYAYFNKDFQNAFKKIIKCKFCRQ

5-HT7 (h) = molecular target: T9, 5-HT7 (h) (Homo sapiens, UniProt P34969); assay: Competition assay to measure binding affinity at 5-HT7 receptor; conditions: test ligand 10 μM; [3H]LSD 4 nM
T9 construct: host or cells: HEK-293 cells

NET (h) = molecular target: T10, NET (h) (Homo sapiens, UniProt P23975); assay: Competition assay to measure binding affinity at norepinephrine transporter (NET); conditions: test ligand 10 μM; [3H]nisoxetine 1 nM
T10 construct: host or cells: CHO cells
T10 sequence (P23975 whole entry): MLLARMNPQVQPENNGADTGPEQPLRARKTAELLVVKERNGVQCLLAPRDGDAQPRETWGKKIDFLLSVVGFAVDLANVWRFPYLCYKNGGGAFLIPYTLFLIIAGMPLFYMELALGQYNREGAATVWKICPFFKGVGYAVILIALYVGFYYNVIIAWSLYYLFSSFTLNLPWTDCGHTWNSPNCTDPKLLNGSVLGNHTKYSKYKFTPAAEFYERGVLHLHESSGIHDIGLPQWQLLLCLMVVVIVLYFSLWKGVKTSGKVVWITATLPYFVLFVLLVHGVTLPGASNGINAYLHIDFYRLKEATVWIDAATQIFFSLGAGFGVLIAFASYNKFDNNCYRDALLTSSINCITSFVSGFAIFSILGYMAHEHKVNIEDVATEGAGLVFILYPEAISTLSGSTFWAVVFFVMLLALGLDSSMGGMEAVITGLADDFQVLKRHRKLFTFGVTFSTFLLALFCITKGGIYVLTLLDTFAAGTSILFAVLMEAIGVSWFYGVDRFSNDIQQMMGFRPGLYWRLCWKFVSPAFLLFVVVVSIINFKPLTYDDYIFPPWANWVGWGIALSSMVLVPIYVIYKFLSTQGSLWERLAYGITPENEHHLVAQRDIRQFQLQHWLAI

5-HT1A receptor [3] = molecular target: T8, 5-HT1A receptor; assay: 5-HT1A receptor radioligand competition assay (SPA); assay type: binding; conditions: competition with 0.5 nM 8-hydroxy-DPAT [3H]; test compound 3 nM to 1 mM; read-out: 5-HT1A, Ki
DAT (h) = molecular target: T11, DAT (h) (Homo sapiens, UniProt Q01959); assay: Competition assay to measure binding affinity at dopamine transporter (DAT); conditions: test ligand 10 μM; [3H]BTCP 4 nM
T11 construct: host or cells: CHO cells
T11 sequence (Q01959 whole entry): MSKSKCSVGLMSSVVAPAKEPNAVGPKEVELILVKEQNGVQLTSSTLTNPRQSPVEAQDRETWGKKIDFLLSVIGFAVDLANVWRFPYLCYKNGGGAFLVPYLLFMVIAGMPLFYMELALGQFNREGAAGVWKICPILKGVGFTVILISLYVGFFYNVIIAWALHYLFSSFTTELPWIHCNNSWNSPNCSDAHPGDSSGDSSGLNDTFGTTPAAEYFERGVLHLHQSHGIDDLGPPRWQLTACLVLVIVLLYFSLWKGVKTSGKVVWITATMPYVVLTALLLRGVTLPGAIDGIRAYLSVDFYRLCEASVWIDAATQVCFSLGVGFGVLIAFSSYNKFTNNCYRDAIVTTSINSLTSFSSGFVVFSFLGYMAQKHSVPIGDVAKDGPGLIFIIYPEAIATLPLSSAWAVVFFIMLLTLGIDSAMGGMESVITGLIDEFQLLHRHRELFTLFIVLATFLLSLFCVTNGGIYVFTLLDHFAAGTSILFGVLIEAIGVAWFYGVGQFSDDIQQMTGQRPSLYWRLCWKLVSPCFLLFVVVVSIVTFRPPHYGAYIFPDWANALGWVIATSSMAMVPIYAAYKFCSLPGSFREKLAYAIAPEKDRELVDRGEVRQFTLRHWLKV

D2 (h) = molecular target: T12, D2 (h) (Homo sapiens, UniProt P14416); assay: Competition assay to measure binding affinity at D2L receptor; conditions: test ligand 10 μM; [3H]methylspiperone 0.3 nM
T12 construct: host or cells: HEK-293 cells
T12 sequence (P14416 whole entry): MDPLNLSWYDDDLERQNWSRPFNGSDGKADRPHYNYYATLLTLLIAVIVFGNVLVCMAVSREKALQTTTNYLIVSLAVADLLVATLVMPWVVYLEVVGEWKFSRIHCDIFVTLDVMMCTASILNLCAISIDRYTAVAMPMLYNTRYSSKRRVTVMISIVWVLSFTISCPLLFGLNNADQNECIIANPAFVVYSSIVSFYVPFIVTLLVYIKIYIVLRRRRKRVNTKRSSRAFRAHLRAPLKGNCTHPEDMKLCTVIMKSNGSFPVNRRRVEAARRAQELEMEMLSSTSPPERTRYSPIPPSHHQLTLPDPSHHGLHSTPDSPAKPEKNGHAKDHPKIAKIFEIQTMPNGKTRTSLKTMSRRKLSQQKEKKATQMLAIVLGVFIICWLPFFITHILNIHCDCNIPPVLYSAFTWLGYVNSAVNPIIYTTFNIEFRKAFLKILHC

D3 (h) = molecular target: T13, D3 (h) (Homo sapiens, UniProt P35462); assay: Competition assay to measure binding affinity at D3 receptor; conditions: test ligand 10 μM; [3H]methylspiperone […]
T13 construct: host or cells: CHO cells
T13 sequence (P35462 whole entry): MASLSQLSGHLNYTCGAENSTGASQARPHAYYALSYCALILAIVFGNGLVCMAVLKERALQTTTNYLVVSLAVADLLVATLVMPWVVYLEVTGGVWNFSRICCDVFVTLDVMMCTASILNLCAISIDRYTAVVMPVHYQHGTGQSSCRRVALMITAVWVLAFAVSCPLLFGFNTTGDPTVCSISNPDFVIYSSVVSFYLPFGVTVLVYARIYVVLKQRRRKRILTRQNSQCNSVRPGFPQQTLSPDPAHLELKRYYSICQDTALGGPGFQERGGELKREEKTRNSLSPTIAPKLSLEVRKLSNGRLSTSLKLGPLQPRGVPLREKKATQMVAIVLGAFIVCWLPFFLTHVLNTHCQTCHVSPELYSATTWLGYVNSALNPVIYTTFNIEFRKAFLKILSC

[4] = read-out: 5-HT2A, Ki, competition with 1 nM [3H]ketanserin, test compound 3 nM to 1 mM
[5] = reduction of cAMP in +5-HT1A cells stimulated with 4 μM forskolin, 20 min, read-out: 5-HT1A, EC50

T1 sequence (P28222 whole entry): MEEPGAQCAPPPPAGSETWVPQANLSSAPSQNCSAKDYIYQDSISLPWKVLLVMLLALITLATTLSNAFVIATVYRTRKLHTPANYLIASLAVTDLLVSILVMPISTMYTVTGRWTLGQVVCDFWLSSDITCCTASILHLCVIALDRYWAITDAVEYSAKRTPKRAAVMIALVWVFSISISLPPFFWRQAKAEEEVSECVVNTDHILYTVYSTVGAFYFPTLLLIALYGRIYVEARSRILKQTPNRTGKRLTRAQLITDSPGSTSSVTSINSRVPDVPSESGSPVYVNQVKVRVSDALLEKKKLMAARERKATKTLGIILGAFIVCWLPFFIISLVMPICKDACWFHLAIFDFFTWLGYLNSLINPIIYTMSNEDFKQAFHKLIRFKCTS

Structure (SMILES) | HT1B, percent of control-specific binding (5-HT1B (h)) [%] | HT2C, percent of control-specific binding (5-HT2C (h)) [%] | Ki (5-HT2A receptor) [µM] | Ki [1] [µM] | HT2B, percent of control-specific binding (5-HT2B (h)) [%] | HT1D, percent of control-specific binding (5-HT1D (r)) [%] | MT1, percent of control-specific binding (MT1 (ML1A) (h)) [%] | inhibition at 10 µM (alpha2A (h)) [%] | EC50 (5-HT1A receptor [2]) [µM] | HT7, percent of control-specific binding (5-HT7 (h)) [%] | NET, percent of control-specific binding (NET (h)) [%] | Ki (5-HT1A receptor [3]) [µM] | DAT, percent of control-specific binding (DAT (h)) [%] | D2, percent of control-specific binding (D2 (h)) [%] | D3, percent of control-specific binding (D3 (h)) [%] | SERT binding, binding curve in words [1] | 5-HT1A receptor engagement (change in cAMP levels), in words (5-HT1A receptor [2]) | also measured
COc1cc2c(cc1CCNCCO)OCO2 [A(XXIV)] | 0 | 76 | 26 | 52.2 | 43 | 29 | 0 | 11 | 32.3 | 35 | 0 | 0.993 | 5 | 7 | 13 | – | – | –
OCCNCCc1cc2c(cc1Br)OCO2 [A(XXX)] | 0 | 57 | 11.7 | 84.3 | 54 | 39 | 0 | 6 | 11.7 | 61 | 6 | 0.295 | 0 | 4 | 30 | – | – | –
CNC(C)Cc1ccc2c(c1)OCO2 (centres unmarked) [MDMA, reference compound] | −21 | 96 | – | – | 85 | 18 | 1 | – | – | 58 | 3 | 11 | 28 | −10 | 18 | bind SERT to varying degrees | mild | Ki (5-HT2A receptor; [4]): 39.9 µM; Ki ([1]; read-out: SERT, Ki): 5.8 µM; α-2A, percent of control-specific binding (alpha2A (h)): 27%; EC50 (5-HT1A receptor [2]; [5]): > 1000 µM
Brc1cc2c(cc1CCN1CCCC1)OCO2 [A(XXV)] | 0 | 87 | 7.65 | 10.9 | 76 | 30 | 1 | 61 | 0.342 | 71 | 28 | 0.0635 | 11 | 21 | 70 | – | – | –
FC1(F)Oc2ccc(CCN3CCCC3)cc2O1 [A(XXVIII)] | 0 | 53 | 15.6 | 23.7 | 15 | 1 | 0 | 26 | 374 | 15 | 0 | 1.98 | 0 | 6 | 16 | – | – | –
COc1cc(CCN)c(OC)cc1Br [2C-B, reference compound] | 77 | – | – | – | 99 | 100 | 86 | – | – | 88 | 13 | 0.2 | 5 | 42 | 43 | bind SERT to varying degrees | reduction in cAMP levels | Ki (5-HT2A receptor; [4]): 0.414 µM; Ki ([1]; read-out: SERT, Ki): 11.4 µM; α-2A, percent of control-specific binding (alpha2A (h)): 88%; EC50 (5-HT1A receptor [2]; [5]): 5.95 µM
COc1cc(CCN)cc(OC)c1OC [mescaline, 3,4,5 trimethoxyphenethylamine] | 11 | 95 | – | 406 | 80 | 70 | 6 | 57 | – | – | −9 | – | −1 | 3 | −13 | SERT binding at higher ligand concentrations | no | –
NCCc1c[nH]c2ccc(O)cc12 [serotonin, reference compound] | 97 | – | – | – | – | 101 | 7 | 18 | – | – | −3 | – | 8 | 15 | 73 | – | reduction in cAMP levels | –
COc1cc2c(cc1CCN1CCCC1)OCO2 [A(XIV)] | 7 | 90 | 11 | 23.2 | 63 | 28 | 7 | 54 | 1.17 | 75 | 0 | 0.0462 | 0 | 12 | 46 | – | receptor modulation at evaluated ligand concentrations | –
